Test results taken from patent US10352936B2, “Use of tumor Fas expression to determine response to anti-cancer therapy” (ApopLogic Pharmaceuticals, Inc., priority 2011, dated 2019).

Test system: naturally occurring appendicular osteosarcoma
Experiment: Survival of dogs treated with neoadjuvant FasL plus standard of care versus carboplatin standard of care
Type: in vivo, dog
Settings: whole treatment group
Experimental: Without being bound to theory, the principle of this treatment was based on a 10-day delay of therapy. The rationale for a 10-day delay approach was based on our preclinical data showing that there was statistically significant immunologic protection in animals immunized 10 days before challenge, as well as on the practicality of any delay of therapy approach. The experimental therapy was performed on Day 1, and dogs were followed to assess local and/or systemic toxicity for 10 days. At the end of the investigational period, dogs were treated using standard-of-care for OS.
The treatment sequence was as follows: On Day 0—history, physical, CBC, biochemical profile, urinalysis, chest radiographs, +/− bone scan. On Day 1, lesion biopsy and intratumoral injection. On Days 3, 7, and 10, toxicity monitoring with physical exam, CBC, biochemical profile, urinalysis, lameness evaluation and quality of life assessment. Day 10, amputation of affected limb.
Patient selection, treatment, and biological sample preparation were conducted as described in Example 1. Fifty seven dogs were enrolled in the study. Two dogs were diagnosed with intramedullary tumors that were not OS, two dogs were withdrawn from the study, two dogs had pre-existing metastasis, two were lost to follow up, and four died of other causes. The rest of the patients were followed until their death, which was then determined to be disease-related (“died of disease”) or unrelated to disease recurrence (“died of other causes”).
Table 1 depicts disease free interval (DFI), overall survival (OS), and percentage of dogs alive at 200 days following treatment and amputation that were treated with standard of care (carboplatin (carbo) control) and treated with FasL. Additionally, the disease free interval and overall survival of those dogs which had inflammation scores of 1 (low inflammation) as determined by histopathologic evaluation (see Example 1) or inflammation scores of 2-3 (moderate to high inflammation) is depicted. […]

SMILES: [NH2][Pt]1([NH2])[O]C(=O)C2(CCC2)C(=O)[O]1 [Carbo control, carboplatin]
- Disease Free Interval: 213
- Overall Survival: 231 days
- % Alive at 200 Days (200 days following treatment and amputation): 56%
